In this assay the target is T1, angiotensin-converting enzyme (ACE) (Sus scrofa, UniProt F1RRW5).
T1 construct: ACE isolated from porcine kidneys (EC 3.4.15.1)
T1 sequence (F1RRW5 34-1309): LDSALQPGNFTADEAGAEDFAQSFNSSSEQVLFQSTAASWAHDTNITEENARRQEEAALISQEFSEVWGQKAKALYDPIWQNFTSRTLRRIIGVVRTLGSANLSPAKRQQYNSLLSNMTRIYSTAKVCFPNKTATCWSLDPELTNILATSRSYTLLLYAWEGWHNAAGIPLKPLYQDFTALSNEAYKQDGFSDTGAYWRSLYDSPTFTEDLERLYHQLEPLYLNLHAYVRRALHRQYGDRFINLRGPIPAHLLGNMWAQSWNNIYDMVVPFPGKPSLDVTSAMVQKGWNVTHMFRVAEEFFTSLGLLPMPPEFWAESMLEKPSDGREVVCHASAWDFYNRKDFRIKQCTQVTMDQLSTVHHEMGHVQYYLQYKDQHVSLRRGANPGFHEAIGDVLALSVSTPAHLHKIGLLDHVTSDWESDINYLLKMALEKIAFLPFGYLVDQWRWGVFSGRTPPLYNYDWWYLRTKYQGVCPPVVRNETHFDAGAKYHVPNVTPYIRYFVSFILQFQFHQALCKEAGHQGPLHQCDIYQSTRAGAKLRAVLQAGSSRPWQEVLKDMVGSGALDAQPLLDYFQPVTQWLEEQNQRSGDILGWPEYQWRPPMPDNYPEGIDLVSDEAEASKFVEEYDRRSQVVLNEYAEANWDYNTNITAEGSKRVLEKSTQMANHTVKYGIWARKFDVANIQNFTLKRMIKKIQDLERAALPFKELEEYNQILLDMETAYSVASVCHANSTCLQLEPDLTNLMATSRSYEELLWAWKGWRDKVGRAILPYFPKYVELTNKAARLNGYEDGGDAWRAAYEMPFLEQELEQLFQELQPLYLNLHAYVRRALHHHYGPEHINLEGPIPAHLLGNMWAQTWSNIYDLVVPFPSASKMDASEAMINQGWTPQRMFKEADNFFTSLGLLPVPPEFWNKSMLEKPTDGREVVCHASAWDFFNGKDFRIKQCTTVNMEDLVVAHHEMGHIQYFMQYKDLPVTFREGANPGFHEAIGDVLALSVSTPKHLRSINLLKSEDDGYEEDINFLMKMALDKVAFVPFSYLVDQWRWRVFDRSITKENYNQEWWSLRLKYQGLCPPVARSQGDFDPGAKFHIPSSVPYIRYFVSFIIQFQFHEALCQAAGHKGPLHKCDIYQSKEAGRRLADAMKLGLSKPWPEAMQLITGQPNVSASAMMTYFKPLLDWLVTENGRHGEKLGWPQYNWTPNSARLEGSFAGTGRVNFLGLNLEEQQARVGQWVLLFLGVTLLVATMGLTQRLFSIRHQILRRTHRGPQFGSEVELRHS
As to the kind of experiment: fluorescence assay, hydrolysis of Abz-Gly-Phe(NO2)-Pro. The class given is biochemical.

Read-outs that look alike come from different tables or passages of the source.

`O=C1O[C@H]([C@@H](O)CO)C(O)=C1O` [AA, L-ascorbic acid] gave an IC50 of 81.3 mM.

Consider `O=C(O)/C=C/c1ccc(O)c(O)c1` [CFA, Caffeic acid], for which the IC50 (read-out: IC50 (μg/mL) (converted)) is 8.97 mM.

For `N[C@@H](CCC(=O)N[C@@H](CS)C(=O)NCC(=O)O)C(=O)O` [GSH], the “IC50” value was 12.79 ± 1.70 µg/mL.
